Assays:
lymphoma tumor = test: Doxorubicin delivered to a lymphoma tumor using a porous tube; fluorescence and brightfield microscopy of tumor slices; assay type: in vivo; conditions: porous tube delivery, three tumor depths
From the text: Doxorubicin was delivered to a lymphoma tumor using a porous tube of the method. The tumor was then excised and sectioned. […] Regions of doxorubicin fluorescence and cell death are localized to a zone within the tumor slice, reflecting spatially constrained doxorubicin delivery.

mouse tumor = test: Spatially restricted injection into a mouse tumor with indicator dyes (apoptosis signal imaging); assay type: in vivo; conditions: excitation 640 nm, emission 720 nm of the dye, versus control
Procedure: FIG. 14 depicts the use of various indicator dyes according to the method, to monitor spatially restricted delivery of compounds and resulting localized effects on regions of a tumor. A mouse tumor was injected with 1. doxorubicin; and 2. a control. Panel A illustrates excitation at 640 nm and emission at 800 nm of the dye. Panel B illustrates the doxorubicin signal (3.) observed after excitation at 500 nm and emission at 600 nm of doxorubicin. Panel C illustrates an apoptosis signal (4.) observed after excitation at 640 nm and emission at 720 nm of the dye.

[1] = test system: Intracranial medulloblastoma model (conditional Patchedl null) mice; test: Survival of intracranial medulloblastoma model mice; assay type: in vivo, mouse; conditions: injected daily with 20 mg/kg, monitored for 50 days, versus vehicle only
Procedure: The results of the in vivo experiment depicted in FIG. 12 predicted that Shh antagonists would have a positive effect on a mouse model of cancer. Intracranial medulloblastoma model (conditional Patchedl null) mice used in this experiment develop medulloblastoma with an early onset and 100% penetrance. Accordingly, mice were injected daily with 20 mg/kg of either A) vehicle plus IPI-926 (n=12); or B) vehicle only (n=11). The mice were monitored for 50 days for survival, and the results depicted in FIG. 13.

## COc1cccc2c1C(=O)c1c(O)c3c(c(O)c1C2=O)C[C@@](O)(C(=O)CO)C[C@@H]3O[C@H]1C[C@H](N)[C@H](O)[C@H](C)O1 [Doxorubicin]
Lymphoma tumor
  cell death in tumor slices: Cell death was observed in a localized area
Mouse tumor
  apoptosis signal: apoptosis overlaps with the region that received doxorubicin

## CC1=C2C[C@H]3[C@@H](CC[C@@H]4C[C@H](NS(C)(=O)=O)CC[C@@]43C)[C@@H]2CC[C@@]2(C1)O[C@@H]1C[C@H](C)CN[C@H]1[C@H]2C [IPI-926]
[1]
  survival: significantly increased survival
